Assay results taken from patent US6610685B2, “Fused indole derivatives” (Hoffmann-La Roche Inc., priority 2000, dated 2003).
Where two headings read alike, the source gives them in different places.

Key:
[1] = target: T1, 5-HT2A receptor (Homo sapiens, UniProt P28223); assay: Binding to the 5-HT2A receptor, Method (c), [125I]-DOI; set-up: expressed in transfected cells; host or cells: CHO cell line
Method: (§1) The binding of compounds of formula (I) to serotonin receptors was determined in vitro by standard methods. The preparations were investigated in accordance with the assays given hereinafter.
Method (c): For the binding to the 5-HT2A receptor the 5-HT2A receptors were radiolabeled with [^125I]-DOI. The affinity of the compounds for 5-HT2A receptors in a CHO cell line was determined according to the procedure of D. J. McKenna and S. J. Peroutka, J. Neurosci., 1989, 9, 3482-90.
(§2) The Ki values are calculated according to the method of Cheng, Yung-Chi, and Prusoff, W. H. Biochem. Pharmacol. 1973, 22(23) 3099-108.

[2] = Pharmacodynamic study: food intake up to 16 hours after compound administration; assay type: in vivo, rats; details: 30 mg/kg p.o.
Method: The in vivo activity of compounds of formula (I) was assayed for ability to regulate feeding behaviour during a time period up to 16 hours after compound administration.
The test compound was assessed following acute administration. Each study utilised a between-subjects design (typically n=8) and compared the effects of a single dose of the test agent to those of vehicle.
Example 1 was administered at a dose of 30 mg/kg p.o. in a distilled water vehicle 2, 4, 8, or 16 hours prior to food presentation. At the time of food presentation (standard laboratory chow) all animals had been subjected to a 23-hour food deprivation period. Water was freely available throughout the study. The amount of food consumed over 1 hour was determined. Food intake data were subjected to two-way analysis of variance (ANOVA) with drug treatment as a between-subjects factor and injection-test-interval as a between subjects factor. Newman-Keuls tests were performed to assess whether differences between the vehicle mean and the drug-treated mean at each level of injection-test-interval were significant. All statistical analyses were performed using Statistica Software, Version 5.0 (Statsoft Inc.) and Microsoft Excel 7.0 (Microsoft Corp.).

[3] = target: T2, human 5-HT2B receptors (Homo sapiens, UniProt P41595); assay: Binding to the 5-HT2B receptor, Method (b), [3H]-5-HT
T2 construct: expressed in transfected cells; host or cells: CHO cell line
T2 sequence (P41595 whole entry): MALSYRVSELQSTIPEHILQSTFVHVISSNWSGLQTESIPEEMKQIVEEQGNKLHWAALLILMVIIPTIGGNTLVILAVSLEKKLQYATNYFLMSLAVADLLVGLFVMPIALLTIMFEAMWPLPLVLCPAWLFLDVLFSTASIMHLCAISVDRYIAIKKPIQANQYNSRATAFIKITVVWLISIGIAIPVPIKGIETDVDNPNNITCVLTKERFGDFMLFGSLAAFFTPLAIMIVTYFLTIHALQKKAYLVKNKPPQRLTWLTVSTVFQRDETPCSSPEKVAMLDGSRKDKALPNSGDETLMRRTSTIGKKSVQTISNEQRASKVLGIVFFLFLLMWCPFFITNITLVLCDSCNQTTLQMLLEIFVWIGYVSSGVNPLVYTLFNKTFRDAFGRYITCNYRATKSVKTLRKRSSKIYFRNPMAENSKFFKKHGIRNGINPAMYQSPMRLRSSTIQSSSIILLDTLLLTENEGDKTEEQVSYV
Method: as §1
Method (b): For the binding to the 5-HT2B receptor the 5-HT2B receptors were radiolabeled with [^3H]-5-HT. The affinity of the compounds for human 5-HT2B receptors in a CHO cell line was determined according to the procedure of K. Schmuck, C. Ullmer, P. Engels and H. Lubbert, FEBS Lett., 1994, 342, 85-90.
as §2

[4] = target: T1, 5-HT2A receptor; assay: Functional activity, FLIPR calcium assay, CHO cells expressing human 5-HT2A; assay type: cell-based; set-up: expressed in transfected cells; host or cells: CHO cells
Method: (§3) The functional activity of compounds of formula (I) was assayed using a Fluorimetric Imaging Plate reader (FLIPR). CHO cells expressing the human 5-HT2C or human 5-HT2A receptors were counted and plated into standard 96 well microtitre plates on the day before testing to give a confluent monolayer. The cells were then dye loaded with the calcium sensitive dye, Fluo-3-AM. Unincorporated dye was removed using an automated cell washer to leave a total volume of 100 μL/well of assay buffer (Hanks balanced salt solution containing 20 mM Hepes and 2.5 mM probenecid). The drug (dissolved in 50 μL of the assay buffer) was added at a rate of 70 μL/sec to each well of the FLIPR 96 well plate during fluorescence measurements. The measurements were taken at 1 sec intervals and the maximum fluorescent signal was measured (approx 10-15 secs after drug addition) and compared with the response produced by 10 μM 5-HT (defined as 100%) to which it was expressed as a percentage response (relative efficacy). Dose response curves were constructed using Graphpad Prism (Graph Software Inc.).

[5] = target: T3, 5-HT2C receptor (Homo sapiens, UniProt P28335); assay: Binding to the 5-HT2C receptor, Method (a), [3H]-5-HT; set-up: expressed in transfected cells; host or cells: CHO cell line
T3 sequence (P28335 33-458): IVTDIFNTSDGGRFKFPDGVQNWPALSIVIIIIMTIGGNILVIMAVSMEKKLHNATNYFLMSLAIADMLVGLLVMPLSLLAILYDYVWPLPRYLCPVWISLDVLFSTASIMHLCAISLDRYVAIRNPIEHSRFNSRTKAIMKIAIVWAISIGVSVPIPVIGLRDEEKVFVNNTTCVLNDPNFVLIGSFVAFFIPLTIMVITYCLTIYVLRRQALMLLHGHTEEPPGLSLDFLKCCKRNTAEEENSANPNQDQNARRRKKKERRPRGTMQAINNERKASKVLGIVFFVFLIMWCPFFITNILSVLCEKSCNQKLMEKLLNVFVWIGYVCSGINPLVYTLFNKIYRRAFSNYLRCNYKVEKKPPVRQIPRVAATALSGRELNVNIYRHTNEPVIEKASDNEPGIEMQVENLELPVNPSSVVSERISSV
Method: as §1
Method (a): For the binding to the 5-HT2C receptor the 5-HT2C receptors were radiolabeled with [^3H]-5-HT. The affinity of the compounds for 5-HT2C receptors in a CHO cell line was determined according to the procedure of D. Hoyer, G. Engel and H. O. Kalkman, European J. Pharmacol., 1985, 118, 13-23.
as §2

[6] = target: T3, 5-HT2C receptor; assay: Functional activity, FLIPR calcium assay, CHO cells expressing human 5-HT2C; assay type: cell-based; set-up: expressed in transfected cells; host or cells: CHO cells; details: for h5-HT2c Relative Efficacy: relative to response of 10 μM 5-HT (100%)
Method: as §3

[7] = literature; cited from earlier work
[8] = literature, cited from earlier work

T1 sequence (P28223 whole entry): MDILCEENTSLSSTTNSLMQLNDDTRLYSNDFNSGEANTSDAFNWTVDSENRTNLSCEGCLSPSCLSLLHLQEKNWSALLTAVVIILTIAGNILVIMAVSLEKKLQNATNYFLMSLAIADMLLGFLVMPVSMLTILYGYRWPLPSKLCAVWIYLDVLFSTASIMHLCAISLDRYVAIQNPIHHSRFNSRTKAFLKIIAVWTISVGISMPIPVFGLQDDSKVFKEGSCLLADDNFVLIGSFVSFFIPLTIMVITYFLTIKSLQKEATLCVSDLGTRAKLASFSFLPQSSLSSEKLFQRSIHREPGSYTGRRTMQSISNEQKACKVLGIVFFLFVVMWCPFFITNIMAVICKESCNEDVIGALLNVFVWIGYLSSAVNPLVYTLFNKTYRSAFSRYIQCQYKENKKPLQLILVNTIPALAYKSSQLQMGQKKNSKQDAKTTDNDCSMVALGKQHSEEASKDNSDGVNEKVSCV

`COCCCCOc1ccc2c(c1)c(C[C@H](C)N)c1n2CCC1.Cl` gave a melting point of 107 °C.
In the case of `CCOCCOc1ccc2c(c1)c(C[C@H](C)N)c1n2CCC1.Cl`, the melting point is reported as 170 to 172 °C.
In the case of `CCOCCCOc1ccc2c(c1)c(C[C@H](C)N)c1n2CCC1.Cl`, the melting point is reported as 132 °C.
With `CCOc1ccc2c(c1)c(C[C@H](C)N)c1n2CCC1` [Example 1, (S)-2-(6-ethoxy-2,3-dihydro-1H-3a-aza-cyclopenta[a]inden-8-yl)-1-methyl-ethylamine] the Ki [1] was 0.41 µM, the “duration of action in reducing rat food intake” value [2] was “at least 16 hours” and the Ki [3] was 0.83 µM. The “h5-HT2A Relative Efficacy” value ([4]; relative to response of 10 μM 5-HT (100%)) was 33%, the Ki ([5]; Method (a), [3H]-5-HT, CHO cell line, Ki by Cheng-Prusoff, read-out: Ki (2C)) was 0.011 µM and the “h5-HT2c Relative Efficacy” value [6] was 87%.
For `COCCOc1ccc2c(c1)c(C[C@H](C)N)c1n2CCC1` [Example 2, (S)-2-[6-(2-methoxy-ethoxy)-2,3-dihydro-1H-3a-aza-cyclopenta[a]inden-8-yl]-1-methyl-ethyl amine], the Ki ([1]; Method (c), [125I]-DOI, CHO cell line, Ki by Cheng-Prusoff, read-out: Ki (2A)) was 0.52 µM, the Ki ([3]; Method (b), [3H]-5-HT, human 5-HT2B in CHO cell line, Ki by Cheng-Prusoff, read-out: Ki (2B)) was 0.48 µM and the Ki [5] was 0.019 µM.
For `C[C@H](N)Cc1c2n(c3ccc(OC4CC4)cc13)CCC2` [Example 3, (S)-2-(6-cyclopropoxy-2,3-dihydro-1H-3a-aza-cyclopenta[a]inden-8-yl)-1-methyl-ethylamine], the EC50 ([4]; FLIPR, CHO cells, read-out: h5-HT2A EC50) was over 1 µM, the EC50 ([6]; FLIPR, CHO cells, read-out: h5-HT2c EC50) was 0.003 µM and the “h5-HT2c Relative Efficacy” value [6] was 84%.
For `Clc1cccc(N2CCNCC2)c1` [mCPP, m-chlorophenylpiperazine], the behavioural satiety sequence [7] is listed as “accelerate the appearance of the behavioural satiety sequence”, the “food intake in rats” value [7] is listed as “reduce food intake” and the “food intake in female volunteers” value ([8]; single dose) is listed as “decreased food intake”. For the same compound, the “appetite and body weight of obese male and female subjects” value ([8]; subchronic treatment for a 14 day period) was “decreased the appetite and body weight”.
